Literature values in US5786344A, “Camptothecin drug combinations and methods with reduced side effects” (priority 1995, dated 1998).
“Also recorded” adds a separate entry of the source. Counter-ions that a name gives are not always drawn. Like-named read-outs stand apart in the source and are kept apart here. *1 amine or outer side, *2 acyl side, *3 side chain or, on linkers, in order; H or OH if unused. Where a SMILES comes first, the peptide text is derived from it. Bridges are numbered along the chain shown (N, C = ends). Roman numbers before positions name the chains, in order. [ ]: non-standard residue; d: D form. Actinocin(9to1) = Cc1c2oc3c(C)ccc(C(=O)[*:1])c3nc-2c(C(=O)[*:2])c(N)c1=O; NMeV = CN[C@H](C(=O)O)C(C)C; Sar = CNCC(=O)O

Key:
tumors = settings: preclinical and clinical tumors; cited from earlier work
plasma proteins = settings: cited from earlier work
p-glycoprotein [1] = settings: cited from earlier work
[2] = cited from earlier work
[3] = test system: human and murine cell lines; settings: 4-6 μM; cited from earlier work
[4] = test system: multidrug resistant (MDR) cells; settings: cited from earlier work
[5] = cited from earlier work; for clinical toxicity: human, in vivo
p-glycoprotein [6] = settings: renal tubules; cited from earlier work
[7] = test system: outwardly-rectifying chloride channel; settings: 50 μM; cited from earlier work
p-glycoprotein [8] = settings: hydrochloride, cited from earlier work
[9] = plasma/serum/terminal or elimination half-life

CC[C@@]1(O)C(=O)OCc2c1cc1n(c2=O)Cc2cc3c(N)cccc3nc2-1 [9-AC, 9-amino-20(s)-camptothecin]
antitumor activity (tumors): significant activity of 9-AC against colon cancer

COc1ccc([C@@H]2Sc3ccccc3N(CCN(C)C)C(=O)[C@@H]2OC(C)=O)cc1 [Diltiazem, benzothiazepin-4(5H)-one, 3-(acetyloxy)-5-[2-(dimethylamino)ethyl]-2,3-dihydro-2-(4-methoxyphenyl)-,(+) -cis-, monohydrochloride]
plasma protein binding (plasma proteins; plasma): 70-80% | inhibition of / interaction with p-glycoprotein (p-glycoprotein [1]): p-glycoprotein inhibitor | bioavailability / dose reaching the systemic circulation ([2]; human, in vivo, po): 40-60% | oral absorption ([2]; human, in vivo, po): 80% | excreted unchanged (urine) ([2]; human, in vivo): Less than 4% | half-life ([2]; human, in vivo): about 4 hr

CC/C(=C(\c1ccccc1)c1ccc(OCCNC)cc1)c1ccccc1 [N-desmethyltamoxifen]
enhancement of intracellular concentration of cytotoxic drugs [3]: three-fold to ten-fold | concentration ([2]; read-out: plasma level, oral tamoxifen 150 mg/m2 twice a day after 400 mg/m2 loading dose): 6000 nM

CCOC(=O)C1=C(C)NC(C)=C(C(=O)OC)C1c1cccc([N+](=O)[O-])c1 (stereo not shown) [Nitrendipine, 3,5-Pyridinedicarboxylic acid, 1,4-dihydro-2,6-dimethyl-4-(3-nitrophenyl)-, ethyl methyl ester]
plasma protein binding (plasma proteins; plasma): About 98% | bioavailability / dose reaching the systemic circulation ([2]; human, in vivo, po): 10-22% | half-life, average or usual ([2]; human, in vivo): ~12 h

CC(C)NCC(O)COc1cccc2ccccc12 (stereo not shown) [Propranolol]
plasma protein binding (plasma proteins; plasma): Approximately 90% | bioavailability / dose reaching the systemic circulation ([2]; human, in vivo, po): about 25% | inter-individual variability in plasma concentrations ([2]; human, in vivo, po): approximately 20 fold | CNS / blood-brain barrier penetration ([2]; human, in vivo): readily enters the CNS | volume of distribution ([2]; human, in vivo): 4 L/kg | oral absorption ([2]; oral): almost complete absorbed | reversal of drug resistance [4]: partially reverse drug resistance

CC(C)(C)c1ccc(C(O)CCCN2CCC(C(O)(c3ccccc3)c3ccccc3)CC2)cc1 (stereo not drawn) [Terfenadine, 1-Piperidinebutanol, α-[4-(1,1-dimethylethyl)phenyl]-4-(hydroxydiphenylmethyl)-]
clinical toxicity [5]: relatively low toxicity profile | plasma protein binding (plasma proteins; plasma): 97% | peak plasma levels ([2]; human, in vivo, po): 1.5 to 4.5 ng/mL | distribution half-life ([2]; human, in vivo): 3.5 h | half-life ([2]; human, in vivo): 16 to 23 h | oral absorption ([2]; oral): absorbed rapidly and almost completely | drug accumulation and efflux in MDR lines ([4]; MDR lines): augments the accumulation of doxorubicin and inhibits the effluxof rhodamine 123 | drug accumulation or efflux in sensitive cells ([4]; sensitive cells): no effect

CSc1ccc2c(c1)N(CCC1CCCCN1C)c1ccccc1S2 (stereo not shown) [Thioridazine, 10H-Phenothiazine, 10-[2-(1-methyl-2-piperidinyl)ethyl]-2-(methylthio)-]
plasma protein binding (plasma proteins; plasma): 96-99% | half-life, early phase ([2]; human, in vivo): 4 to 10 h | half-life, late phase ([2]; human, in vivo): 26 to 36 h

Cc1c2oc3c(C)ccc(C(=O)N[C@@H]4C(=O)N[C@H](C(C)C)C(=O)N5CCC[C@H]5C(=O)N(C)CC(=O)N(C)[C@@H](C(C)C)C(=O)O[C@@H]4C)c3nc-2c(C(=O)N[C@@H]2C(=O)N[C@H](C(C)C)C(=O)N3CCC[C@H]3C(=O)N(C)CC(=O)N(C)[C@@H](C(C)C)C(=O)O[C@@H]2C)c(N)c1=O [actinomycin D] (I: T[dV]P[Sar][NMeV] / II: T[dV]P[Sar][NMeV]; ester I:1-I:C, II:1-II:C; linker I:N-II:N via Actinocin(9to1))
inhibition of p-glycoprotein-mediated transport (p-glycoprotein [6]): inhibitors | inhibition of / interaction with p-glycoprotein (p-glycoprotein [1]): inhibitor of p-glycoprotein | CNS / blood-brain barrier penetration ([2]; human, in vivo): does not pass the blood-brain barrier | excreted intact into the bile ([2]; human, in vivo): Half of the dose | urinary excretion ([2]; human, in vivo): 10% | half-life [2, 9]: about 36 hr

CC(C)(Oc1ccc(Cl)cc1)C(=O)O [clofibric acid]
plasma protein binding (plasma proteins): bound strongly to plasma proteins | fraction metabolized ([2]; human, in vivo): About 60% | half-life ([2]; human, in vivo): 6 to 25 h | half-life in anuria ([2]; human, in vivo): over 100 hr | half-life, average or usual ([2]; human, in vivo): 11 h

COc1cc2c(c(OC)c1OC)-c1ccc(OC)c(=O)cc1[C@@H](NC(C)=O)CC2 [colchicine]
inhibition of p-glycoprotein-mediated transport (p-glycoprotein [6]): inhibitors | block of chloride channel / transport associated with p-glycoprotein [7]: blocked | inhibition of / interaction with p-glycoprotein (p-glycoprotein [1]): inhibiting p-glycoprotein; also recorded: binding to p-glycoprotein | oral absorption ([2]; oral): well-absorbed

COc1cccc2c1C(=O)c1c(O)c3c(c(O)c1C2=O)C[C@@](O)(C(C)=O)C[C@@H]3O[C@H]1C[C@H](N)[C@H](O)[C@H](C)O1 [daunomycin]
block of chloride channel / transport associated with p-glycoprotein [7]: blocked | inhibition of / interaction with p-glycoprotein (p-glycoprotein [1]): p-glycoprotein inhibitor

COc1cccc2c1C(=O)c1c(O)c3c(c(O)c1C2=O)C[C@@](O)(C(C)=O)C[C@@H]3O[C@H]1C[C@H](N)[C@H](O)[C@H](C)O1 [daunorubicin, hydrochloride]
inhibition of amphiphilic cation transport (p-glycoprotein [8]): inhibited | inhibition of amphiphilic cation transport (p-glycoprotein [8]; listed as Daunorubicin): inhibit | distribution half-life ([2]; human, in vivo, iv): 0.75 h | oral absorption ([2]; human, in vivo, po): Oral absorption is poor | biliary secretion ([2]; human, in vivo): ~40% | half-life [2, 9]: about 19 hr

CC/C(=C(\c1ccccc1)c1ccc(OCCN(C)C)cc1)c1ccccc1 [tamoxifen]
dose-limiting toxicity ([5]; oral 150 mg/m2 twice a day): without dose-limiting toxicity | enhancement of intracellular concentration of cytotoxic drugs [3]: three-fold to ten-fold | bioavailability / dose reaching the systemic circulation ([2]; human, in vivo, po): 25-100% | half-life, single dose ([2]; human, in vivo): 18 h | half-life, steady state ([2]; human, in vivo): 7 h

CC(=O)O[C@H]1C(=O)[C@@]2(C)[C@H]([C@H](OC(=O)c3ccccc3)[C@]3(O)C[C@H](OC(=O)[C@H](O)[C@@H](NC(=O)c4ccccc4)c4ccccc4)C(C)=C1C3(C)C)[C@]1(OC(C)=O)CO[C@@H]1C[C@@H]2O [taxol]
antitumor activity (tumors): activity against malignant melanoma and carcinoma of the ovary | inhibition of / interaction with p-glycoprotein (p-glycoprotein [1]): interacted with p-glycoprotein

OCCN1CCN(CC/C=C2\c3ccccc3Sc3ccc(C(F)(F)F)cc32)CC1 [trans-flupenthixol]
clinical toxicity [5]: apparent lack of clinical toxicity | reversal of drug resistance [4]: reversed cellular resistance to various drugs only in p-glycoprotein expressing cell lines; also recorded: fully reversed resistance to doxorubicin, vincristine, and colchicine | potency for reversing MDR relative to verapamil ([4]; equimolar concentrations): two- to three-fold more potent

CC[C@]1(O)C[C@@H]2CN(CCc3c([nH]c4ccccc34)[C@@](C(=O)OC)(c3cc4c(cc3OC)N(C)[C@H]3[C@@](O)(C(=O)OC)[C@H](OC(C)=O)[C@]5(CC)C=CCN6CC[C@]43[C@@H]65)C2)C1 [vinblastine]
inhibition of p-glycoprotein-mediated transport (p-glycoprotein [6]): inhibitors | block of chloride channel / transport associated with p-glycoprotein [7]: blocked | plasma protein binding (plasma proteins): bind to plasma proteins | inhibition of / interaction with p-glycoprotein (p-glycoprotein [1]): p-glycoprotein inhibitor; also recorded: interacted with p-glycoprotein | plasma half-life, first phase ([2]; human, in vivo, iv): approximately 1 hours | plasma half-life, second phase ([2]; human, in vivo, iv): ~20 h | Cmax ([2]; human, in vivo): ~400 nM | excreted unchanged (urine) ([2]; human, in vivo): Approximately 15% | fecal excretion ([2]; human, in vivo): about 10%

CC[C@]1(O)C[C@H]2CN(CCc3c([nH]c4ccccc34)[C@@](C(=O)OC)(c3cc4c(cc3OC)N(C=O)[C@H]3[C@@](O)(C(=O)OC)[C@H](OC(C)=O)[C@]5(CC)C=CCN6CC[C@]43[C@@H]65)C2)C1 [vincristine]
plasma protein binding (plasma proteins): bind to plasma proteins | inhibition of p-glycoprotein (p-glycoprotein [1]; 10 μM): 95% | inhibition of / interaction with p-glycoprotein (p-glycoprotein [1]): p-glycoprotein inhibitor | p-glycoprotein inhibition relative to comparator (p-glycoprotein [1]; vs verapamil, cyclosporine A, progesterone or anthracycline analogues): more potent than anthracycline analogues | oral absorption ([2]; oral): Unpredictable absorption | half-life ([2]; plasma or terminal half-life): about 24 hours | Cmax ([2]; read-out: peak concentration in plasma, usual clinical doses): ~400 nM
